# Assays:
# [1] = system: SCF substrates p27, NRF2 and CDT1; test: SCF substrates, protein immunoblotting in HepG2 cells; type: cell-based; details: 10 μM, various times (FIG. 6A)
# HepG2 cells [2] = test: Wound-healing assay; type: cell-based; details: 36 h (FIG. 5C)
# Protocol: HepG2 cells were treated with 3-(decylamino)-5-phenylcyclohex-2-en-1-one for 36 h with various concentrations. Cells were then analyzed by BrdU uptake and 7-AAD staining, G0, G1, S, G2/M phase cells were then quantitated and graphed. […] Confluent monolayers of HepG2 cells were injured and cellular migration into the wound was determined under vehicle or 3-(decylamino)-5-phenylcyclohex-2-en-1-one treated condition. 36 h later cells were then observed under white field microscopy and recovery of cells to wound heal was quantified and graphed (right).
# HepG2 cells [3] = test: Cell morphology under white field microscopy; type: cell-based; details: 10 μM, time dependent (FIG. 6C)
# Protocol: HepG2 cells were treated with 3-(decylamino)-5-phenylcyclohex-2-en-1-one at 10 μM for various times. At each time point, cells were analyzed by BrdU uptake and 7-AAD staining, G0, G1, S, G2/M phase cells were then quantitated and graphed. […] Cells were then observed under white field microscopy.
# HepG2 tumor implants = HepG2 tumor implants in nude mice, tumor growth; type: in vivo, athymic nude mice; details: compounds in drinking water (15 mg/kg/d), start at tumor size 0.1 cm^3 (FIG. 8)
# Protocol: Mice were implanted with HepG2 cells (10^6 cells) through subcutaneous injection. 2 weeks later, once tumor size reaches ˜0.1 cm^3, mice were randomized and the treatment began by adding compounds to the drinking water ([…]). Tested compounds were: Vehicle, 3-(decylamino)-5-phenylcyclohex-2-en-1-one (BC1558), 3-(dibenzylamino)-5-phenylcyclohex-2-en-1-one (BC1634) or 3-((4-phenoxybenzyl)amino)-5-phenylcyclohex-2-en-1-one (BC1653). Tumor volume measurements over time were graphed (n=4-5 mice/group, *P<0.05 versus Vehicle).
# As a complementary in vivo model, tumorogenicity was further assessed after implanting HepG2 cells along with 3-(decylamino)-5-phenylcyclohex-2-en-1-one, 3-(dibenzylamino)-5-phenylcyclohex-2-en-1-one, 3-((4-phenoxybenzyl)amino)-5-phenylcyclohex-2-en-1-one treatment in athymic nude mice. Mice were implanted with HepG2 cells through subcutaneous injection. Two weeks later, once tumor size reached 0.1 cm^3, the mice were randomized and the treatment began by adding compounds to the drinking water (15 mg/kg/d).
# PBMC cells = test: LPS-induced TNF release from PBMC cells (ELISA); type: cell-based; details: various concentrations for 2 h, then LPS (10 ng/ml) for 12 h (FIG. 10A)
# Protocol: Cells were then treated with LPS (10 ng/ml) for additional 2 h. Media were then collected and TNF concentration was determined by ELISA. […] Lung tissue was collected and assayed for immunoblotting. Culture media was collected and assayed for cytokines.
# Since SCF machinery is believed to be essential for NF-kB activation, it was investigated whether the DCN1 inhibitors could affect inflammation. 3-(decylamino)-5-phenylcyclohex-2-en-1-one was first tested in PBMCs cells. Briefly, PBMC cells were treated with 3-(decylamino)-5-phenylcyclohex-2-en-1-one at various concentrations for 2 h before exposed to LPS (10 ng/ml) for 12 h.
smiles,measurement,setting,value
"CCCCCCCCCCNC1=CC(=O)CC(c2ccccc2)C1 (centres unmarked) [BC1558, 3-(decylamino)-5-phenylcyclohex-2-en-1-one]","SCF substrates p27, NRF2 and CDT1",[1],increased
same,hepG2 cells migration,HepG2 cells [2],showed inhibition
same,cell morphology,HepG2 cells [3],"accumulation of rounded, apoptotic hepG2 cells"
same,tumor size compared to the vehicle,HepG2 tumor implants,Significantly reduced tumor size
same,LPS-induced TNF release from PBMC cells,PBMC cells,potently inhibited

# Source: patent US20200405715A1, “COMPOSITIONS AND METHODS FOR TREATING CANCER AND INFLAMMATORY DISEASES” (University of Pittsburgh - Of the Commonwealth System of …, priority 2016, published 2020)
